# Measurements from patent publication US7514443B2, “Substituted pyrazolo[1,5-a]pyrimidines as inhibitors of metabotropic glutamate receptors” (Hoffmann-La Roche Inc., priority 2003, dated 2009).
row,melting point,Compound
1,233 °C,"OCc1cc(-c2cnn3c(C(F)(F)F)cc(-c4ccc(Cl)c(Cl)c4)nc23)ccn1 [Example 6.4, {4-[5-(3,4-Dichloro-phenyl)-7-trifluoromethyl-pyrazolo[1,5-a]pyrimidin-3-yl]-pyridin-2-yl}-methanol]"
2,233 °C,"N#Cc1cnn2c(C(F)(F)F)cc(-c3ccncc3)nc12 [Example 1.22, 5-Pyridin-4-yl-7-trifluoromethyl-pyrazolo[1,5-a]pyrimidine-3-carbonitrile]"
3,177 °C,"Cc1cc(-c2cc(C(F)(F)F)n3ncc(-c4cccnc4)c3n2)ccc1C(F)(F)F [Example 4.36, 5-(3-Methyl-4-trifluoromethyl-phenyl)-3-pyridin-3-yl-7-trifluoromethyl-pyrazolo[1,5-a]pyrimidine]"
4,163 °C,"FC(F)(F)c1ccc(-c2cc(C(F)(F)F)n3ncc(-c4cccnc4)c3n2)cc1 [Example 4.14, 5-(4-Trifluoromethyl-phenyl)-3-pyridin-3-yl-7-trifluoromethyl-pyrazolo[1,5-a]pyrimidine]"
5,206 °C,"N#Cc1cnn2c(C(F)(F)F)cc(-c3ccc(Cl)c(Cl)c3)nc12 [Example 1.16, 5-(3,4-Dichloro-phenyl)-7-trifluoromethyl-pyrazolo[1,5-a]pyrimidine-3-carbonitrile]"
6,192 °C,"COc1ccc(-c2cc(C(F)(F)F)n3cnc(C#N)c3n2)cc1 [Example 5.5, 2-(4-Methoxy-phenyl)-4-trifluoromethyl-imidazo[1,5-a]pyrimidine-8-carbonitrile]"
7,222 °C,"Cc1ccc(-c2cc(C(F)(F)F)n3cnc(-c4ccncc4)c3n2)cc1C(F)(F)F [Example 8.16, 2-(4-Methyl-3-trifluoromethyl-phenyl)-8-pyridin-4-yl-4-trifluoromethyl-imidazo[1,5-a]pyrimidine]"
8,218 °C,"Cc1ccc(-c2cc(C(F)(F)F)n3ncc(-c4ccncc4)c3n2)cc1C(F)(F)F [Example 4.27, 5-(4-Methyl-3-trifluoromethyl-phenyl)-3-pyridin-4-yl-7-trifluoromethyl-pyrazolo[1,5-a]pyrimidine]"
9,292 °C,"Cc1cc(-c2cnn3c(C(F)(F)F)cc(-c4ccc(F)c(Cl)c4)nc23)ccn1 [Example 4.31, 5-(3-Chloro-4-fluoro-phenyl)-3-(2-methyl-pyridin-4-yl)-7-trifluoromethyl-pyrazolo[1,5-a]pyrimidine]"
10,253 °C,"Cc1cc(-c2cnn3c(C(F)(F)F)cc(-c4ccc(C(F)(F)F)c(C)c4)nc23)cc(C)n1 [Example 4.38, 5-(3-Methyl-4-trifluoromethyl-phenyl)-3-(2,6-dimethyl-pyridin-4-yl)-7-trifluoromethyl-pyrazolo[1,5-a]pyrimidine]"
11,216 °C,"Cc1cc(-c2cc(C(F)(F)F)n3ncc(C#N)c3n2)ccc1Cl [Example 1.15, 5-(4-Chloro-3-methyl-phenyl)-7-trifluoromethyl-pyrazolo[1,5-a]pyrimidine-3-carbonitrile]"
12,227 °C,"Cc1cc(-c2cc(C(F)(F)F)n3ncc(-c4ccncc4)c3n2)ccc1C(F)(F)F [Example 4.37, 5-(3-Methyl-4-trifluoromethyl-phenyl)-3-pyridin-4-yl-7-trifluoromethyl-pyrazolo[1,5-a]pyrimidine]"
13,220 °C,"Cc1cc(-c2cc(C(F)(F)F)n3ncc(-c4ccnc(CO)c4)c3n2)ccc1Cl [Example 6.3, {4-[5-(4-Chloro-3-methyl-phenyl)-7-trifluoromethyl-pyrazolo[1,5-a]pyrimidin-3-yl]-pyridin-2-yl}-methanol]"
14,281 °C,"Cc1cc(-c2cnn3c(C(F)(F)F)cc(-c4ccc(Cl)c(Cl)c4)nc23)cc(C)n1 [Example 4.22, 5-(3,4-Dichloro-phenyl)-3-(2,6-dimethyl-pyridin-4-yl)-7-trifluoromethyl-pyrazolo[1,5-a]pyrimidine]"
15,192 °C,"N#Cc1cnn2c(C(F)(F)F)cc(-c3cccc(C(F)(F)F)c3)nc12 [Example 1.6, 5-(3-Trifluoromethyl-phenyl)-7-trifluoromethyl-pyrazolo[1,5-a]pyrimidine-3-carbonitrile]"
